Measurements published in PubChem BioAssay (NCI).
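The compound was tested at five concentrations on cells cultured in 96-well plates, with a 48-hour exposure period. Definition used: TGI = concentration required for complete inhibition of growth.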

How the values were obtained:
Assay in all cases: growth of human tumour cells (NCI), 48 h
[1] = system: 786-0 renal
[2] = system: U251 CNS
[3] = system: UACC-62 melanoma
[4] = system: TK-10 renal
[5] = system: NCI-H460 lung
[6] = system: OVCAR-5 ovarian
[7] = system: HOP-62 NSCLC
[8] = system: NCI/ADR-RES ovarian
[9] = system: MDA-MB-231 breast
[10] = system: HCC-2998 colon
[11] = system: MCF7 breast
[12] = system: SF-539 CNS
[13] = system: DU-145 prostate
[14] = system: KM12 colon
[15] = system: SN12C renal
[16] = system: MDA-N
[17] = system: EKVX NSCLC
[18] = system: T-47D breast
[19] = system: NCI-H23 lung
[20] = system: NCI-H226 lung
[21] = system: A549 NSCLC
[22] = system: A498 renal
[23] = system: UACC-257 melanoma
[24] = system: K-562 leukemia
[25] = system: RPMI-8226 leukemia
[26] = system: CAKI-1 renal
[27] = system: HT29 colon
[28] = system: NCI-H522 lung
[29] = system: PC-3 prostate
[30] = system: M14 melanoma
[31] = system: SW-620 colon
[32] = system: HS 578T breast
[33] = system: OVCAR-8 ovarian
[34] = system: OVCAR-3 ovarian
[35] = system: ACHN renal
[36] = system: HOP-92 NSCLC
[37] = system: SK-MEL-2 melanoma
[38] = system: OVCAR-4 ovarian
[39] = system: SK-MEL-5 melanoma
[40] = system: HCT-15 colon
[41] = system: COLO 205 colon
[42] = system: SF-268 CNS
[43] = system: MALME-3M melanoma
[44] = system: IGROV1 ovarian
[45] = system: LOX IMVI melanoma
[46] = system: SNB-19 CNS
[47] = system: SK-MEL-28 melanoma
[48] = system: HCT-116 colon
[49] = system: UO-31 renal
[50] = system: BT-549 breast
[51] = system: SF-295 CNS
[52] = system: MOLT-4 leukemia
[53] = system: MDA-MB-435
[54] = system: SR leukemia
[55] = system: SNB-75 CNS
[56] = system: RXF 393 renal
[57] = system: SK-OV-3 ovarian
[58] = system: CCRF-CEM leukemia
[59] = system: HL-60(TB) leukemia

## Nc1nc2c(c(=O)[nH]1)CN(CCCN1CCOCC1)CN2
[1]
  TGI: > 100 µM
[2]
  TGI: > 100 µM
[3]
  TGI: > 100 µM
[4]
  TGI: > 100 µM
[5]
  TGI: > 100 µM
[6]
  TGI: > 100 µM
[7]
  TGI: > 100 µM
[8]
  TGI: > 100 µM
[9]
  TGI: > 100 µM
[10]
  TGI: > 100 µM
[11]
  TGI: > 100 µM
[12]
  TGI: > 100 µM
[13]
  TGI: > 100 µM
[14]
  TGI: > 100 µM
[15]
  TGI: > 100 µM
[16]
  TGI: > 100 µM
[17]
  TGI: > 100 µM
[18]
  TGI: > 100 µM
[19]
  TGI: > 100 µM
[20]
  TGI: > 100 µM
[21]
  TGI: > 100 µM
[22]
  TGI: > 100 µM
[23]
  TGI: > 100 µM
[24]
  TGI: > 100 µM
[25]
  TGI: > 100 µM
[26]
  TGI: > 100 µM
[27]
  TGI: > 100 µM
[28]
  TGI: > 100 µM
[29]
  TGI: > 100 µM
[30]
  TGI: > 100 µM
[31]
  TGI: > 100 µM
[32]
  TGI: > 100 µM
[33]
  TGI: > 100 µM
[34]
  TGI: > 100 µM
[35]
  TGI: > 100 µM
[36]
  TGI: > 100 µM
[37]
  TGI: > 100 µM
[38]
  TGI: > 100 µM
[39]
  TGI: > 100 µM
[40]
  TGI: > 100 µM
[41]
  TGI: > 100 µM
[42]
  TGI: > 100 µM
[43]
  TGI: > 100 µM
[44]
  TGI: > 100 µM
[45]
  TGI: > 100 µM
[46]
  TGI: > 100 µM
[47]
  TGI: > 100 µM
[48]
  TGI: > 100 µM
[49]
  TGI: > 100 µM
[50]
  TGI: > 100 µM
[51]
  TGI: > 100 µM
[52]
  TGI: > 100 µM
[53]
  TGI: > 100 µM
[54]
  TGI: > 100 µM

## O=C1NC(=O)C(c2c[nH]c3cc(Br)ccc23)=C1c1cnc[nH]1
[1]
  TGI: > 100 µM
[2]
  TGI: > 100 µM
[55]
  TGI: > 100 µM
[4]
  TGI: > 100 µM
[5]
  TGI: > 100 µM
[6]
  TGI: > 100 µM
[7]
  TGI: > 100 µM
[8]
  TGI: > 100 µM
[9]
  TGI: > 100 µM
[56]
  TGI: > 100 µM
[11]
  TGI: > 100 µM
[12]
  TGI: 72.6 µM
[13]
  TGI: > 100 µM
[14]
  TGI: > 100 µM
[15]
  TGI: > 100 µM
[16]
  TGI: > 100 µM
[17]
  TGI: > 100 µM
[57]
  TGI: > 100 µM
[18]
  TGI: > 100 µM
[20]
  TGI: 7.87 µM
[21]
  TGI: > 100 µM
[22]
  TGI: 52.2 µM
[23]
  TGI: 44.9 µM
[24]
  TGI: > 100 µM
[25]
  TGI: > 100 µM
[26]
  TGI: > 100 µM
[27]
  TGI: > 100 µM
[28]
  TGI: 98.7 µM
[29]
  TGI: > 100 µM
[30]
  TGI: > 100 µM
[31]
  TGI: > 100 µM
[32]
  TGI: > 100 µM
[33]
  TGI: > 100 µM
[34]
  TGI: 81.4 µM
[35]
  TGI: > 100 µM
[36]
  TGI: > 100 µM
[37]
  TGI: 79.3 µM
[58]
  TGI: > 100 µM
[38]
  TGI: > 100 µM
[39]
  TGI: 25 µM
[40]
  TGI: > 100 µM
[41]
  TGI: 63.2 µM
[42]
  TGI: > 100 µM
[43]
  TGI: > 100 µM
[44]
  TGI: > 100 µM
[45]
  TGI: > 100 µM
[46]
  TGI: > 100 µM
[47]
  TGI: > 100 µM
[48]
  TGI: > 100 µM
[49]
  TGI: > 100 µM
[50]
  TGI: 75 µM
[51]
  TGI: > 100 µM
[52]
  TGI: > 100 µM
[59]
  TGI: 93.3 µM
[53]
  TGI: > 100 µM
[54]
  TGI: > 100 µM

## O=C1CSC(c2cccc(Cl)c2)N1c1ccc(-n2c(-c3ccccc3)nc3ccccc3c2=O)cc1 (stereo not given)
[1]
  TGI: > 100 µM
[2]
  TGI: > 100 µM
[3]
  TGI: > 100 µM
[4]
  TGI: > 100 µM
[5]
  TGI: > 100 µM
[6]
  TGI: > 100 µM
[7]
  TGI: > 100 µM
[8]
  TGI: > 100 µM
[9]
  TGI: > 100 µM
[10]
  TGI: > 100 µM
[11]
  TGI: > 100 µM
[12]
  TGI: > 100 µM
[13]
  TGI: > 100 µM
[14]
  TGI: > 100 µM
[15]
  TGI: > 100 µM
[16]
  TGI: > 100 µM
[17]
  TGI: > 100 µM
[57]
  TGI: > 100 µM
[18]
  TGI: > 100 µM
[19]
  TGI: > 100 µM
[21]
  TGI: > 100 µM
[22]
  TGI: > 100 µM
[23]
  TGI: > 100 µM
[24]
  TGI: > 100 µM
[25]
  TGI: > 100 µM
[26]
  TGI: > 100 µM
[27]
  TGI: > 100 µM
[28]
  TGI: > 100 µM
[29]
  TGI: > 100 µM
[31]
  TGI: > 100 µM
[32]
  TGI: > 100 µM
[33]
  TGI: > 100 µM
[34]
  TGI: > 100 µM
[35]
  TGI: > 100 µM
[36]
  TGI: > 100 µM
[37]
  TGI: > 100 µM
[58]
  TGI: > 100 µM
[38]
  TGI: 62.9 µM
[39]
  TGI: > 100 µM
[40]
  TGI: > 100 µM
[41]
  TGI: > 100 µM
[42]
  TGI: > 100 µM
[43]
  TGI: > 100 µM
[44]
  TGI: > 100 µM
[45]
  TGI: > 100 µM
[46]
  TGI: > 100 µM
[47]
  TGI: > 100 µM
[48]
  TGI: > 100 µM
[49]
  TGI: 24.7 µM
[50]
  TGI: > 100 µM
[51]
  TGI: > 100 µM
[52]
  TGI: > 100 µM
[59]
  TGI: > 100 µM
[53]
  TGI: > 100 µM
[54]
  TGI: > 100 µM
